Assay [1] relates to IL-23. Nature of the assay: IL-23 production by DC, ELISA of culture supernatants. Type of assay: cell-based, mouse. The procedure:
(§1) IL-4, IL-10, IL-12 and interferon-γ were determined using the ELISA (enzyme linked immunosorbent assay) set or with the use of individual components from BD BioSciences. IL-23 in the supernatant was determined using the ELISA set (eBioscience). For intracytoplasmic cytokine analyses, the T cells were restimulated with PMA/ionomycin or with APC and peptide in the presence of brefeldin A, then fixed and permeabilized and stained. For the surface staining, anti-CD4 or KJ1-26 antibodies were used; the cytokine antibodies (PE labeled) were all obtained from BD Pharmingen.
(§2) As antigen presenting cells (APC), T cell depleted spleen cells from syngenic mice were used. Dendritic cells (DC) which were obtained from bone marrow (BMDC) and cultured with GM-CSF were used for the relevant experiments on day 7 of culturing. For the experiment, in each case an equal number of APC were cultured either with the medium alone, with L-BSO (C8H18N2O3S, 0.5 mM), dimethyl sulfoxide DMSO(C2H6OS), dimethyl fumarate DMF (C6H8O4, dissolved in DMSO, 70 μM), or calcium monomethyl fumarate (MMF; CaC10H10O8, 200 μM). All substances except for MMF (Fumapharm) were purchased from Sigma-Aldrich. At the respective stated times (see below) the cells were either analyzed directly for their GSH content, used for T cell stimulation or stimulated for […] with Escherichia coli lipopolysaccharides 055.B5 (Sigma-Aldrich) or CpG-DNA 1668 (MWG Biotech) and IL-4 (Stratmann). In order to raise the GSH level again, 1 mM GSH-OEt (C12H21N3O6S; Sigma-Aldrich) or 1 mM NAC (Sigma-Aldrich) was added. The GSH reservoirs in mice were depleted by feeding with DMF or MMF, and in man by treatment with Fumaderm®.
(In general: An ELISA detects its analyte on a solid surface through an enzyme-linked reagent.)

For assay [2], the system named is IL-10. Put plainly: IL-10 production by DC, ELISA of culture supernatants. The format is cell-based, mouse. On the procedure:
as §1
as §2, with “All substances except for MMF (Fumapharm) were purchased from Sigma-Aldrich.” left out, “In order to raise the GSH level again, 1 mM GSH-OEt (C12H21N3O6S; Sigma-Aldrich) or 1 mM NAC (Sigma-Aldrich) was added. The GSH reservoirs in mice were depleted by feeding with DMF or MMF, and in man by treatment with Fumaderm®.” left out

In assay [3] the test system is ovalbumin-specific CD4+ T cells. Nature of the assay: Priming of ovalbumin-specific CD4+ T cells with treated DC, IFN-γ and IL-4 by ELISA. Type of assay: cell-based, mouse. The conditions noted are these: restimulated with fresh APC and antigen. On the procedure:
as §1
The CD4+ T cells of DO11.10 mice were sorted using MACS magnet beads (Miltenyi Biotech). By culturing of DC on day seven with either medium and DMSO or DMF for 2 hours, DC^GSHhigh or DC^GSHlow could be generated. After four-hour stimulation with LPS or CpG-DNA/IL-4, the DC^GSHhigh or DC^GSHlow were used for the stimulation of DO11.10 T cells with 10 μg/ml ovalbumin peptide 323-339 for two days. The T cells were expanded with 50 U/ml IL-2 (Chiron Therapeutics). The cells were washed on day 10 and restimulated with fresh APC. The analysis was performed with the supernatants after 24 hrs. CD4^+ T cells were obtained from SJL mice immunized with PLP peptide using MACS magnet beads and stimulated with irradiated APC and PLP peptide 139-151 in the presence of L-BSO, DMF or only in medium as control. […]

Assay [4] has as its system PLP-specific T cells. Put plainly: In vitro stimulation of PLP-specific T cells under GSH deprivation. The format is cell-based, mouse. On the procedure:
The CD4+ T cells of DO11.10 mice were sorted using MACS magnet beads (Miltenyi Biotech). By culturing of DC on day seven with either medium and DMSO or DMF for 2 hours, DC^GSHhigh or DC^GSHlow could be generated. After four-hour stimulation with LPS or CpG-DNA/IL-4, the DC^GSHhigh or DC^GSHlow were used for the stimulation of DO11.10 T cells with 10 μg/ml ovalbumin peptide 323-339 for two days. The T cells were expanded with 50 U/ml IL-2 (Chiron Therapeutics). The cells were washed on day 10 and restimulated with fresh APC. The analysis was performed with the supernatants after 24 hrs. […]
(§3) Spleen and lymph node CD4^+ T cells were stimulated with PLP (proteolipid protein) peptide 139-151 (10 μg/ml) and stimulated for four days with irradiated SJL-APC in the presence or absence of L-BSO (0.5 mM, Sigma), expanded for three to four days and then restimulated for cytokine production (proteolipid protein is the commonest myelin protein in the central nervous system and plays an important part as an autoantigen in the onset of multiple sclerosis). […] For the cytokine analysis of PLP-specific T cells, the draining lymph nodes of the SJL mice were removed 6 days after the immunization and CD4^+ T cells antigen-specifically analyzed (ELISPOT). […] After washing with H2O, the number of spots was determined in the ELISPOT reader (Biosys).

For assay [5], the system named is experimental autoimmune encephalomyelitis (EAE). Nature of the assay: Actively induced EAE in SJL mice, substance in the drinking water. Type of assay: in vivo. The conditions noted are these: for course/severity of actively induced EAE: DMF 0.3 mg/ml or L-BSO 0.15 mg/ml in the drinking water; for survival of mice with actively induced EAE: substance in the drinking water. On the procedure: Spleen and lymph node CD4^+ T cells were stimulated with PLP (proteolipid protein) peptide 139-151 (10 μg/ml) and stimulated for four days with irradiated SJL-APC in the presence or absence of L-BSO (0.5 mM, Sigma), expanded for three to four days and then restimulated for cytokine production (proteolipid protein is the commonest myelin protein in the central nervous system and plays an important part as an autoantigen in the onset of multiple sclerosis). Next, 10^7 sham (control) or L-BSO treated T cells were injected intraperitoneally into naive SJL mice and the EAE developing as a result was observed. […] Half of the group was fed daily for 14 days with DMF 0.3 mg/ml (Fluka) or L-BSO 0.15 mg/ml in the drinking water. For the cytokine analysis of PLP-specific T cells, the draining lymph nodes of the SJL mice were removed 6 days after the immunization and CD4^+ T cells antigen-specifically analyzed (ELISPOT). For this, ELISPOT plates (Millipore Corporation) were coated with anti-IFN-γ or anti-IL-4 antibodies overnight at 4° C., blocked after 12 hrs with PBS/10% FCS and, after the solution had been poured off, the isolated T lymphocytes were incubated with APC and medium alone or in the presence of PLP peptide. After the incubation time, the cells were poured off, and the plates washed with PBS/Tween and incubated with biotin-conjugated secondary antibodies. After further washing procedures and incubation with streptavidin-alkaline phosphatase (Boehringer), the plates were incubated with developer solution. After washing with H2O, the number of spots was determined in the ELISPOT reader (Biosys).
In order further to study whether GSH deprivation can also influence the differentiation and pathogenicity of autoreactive T cells in vivo, mice were fed with DMF or L-BSO in the drinking water, and the control group only with drinking water. Active EAE induction was effected on day 10 with PLP peptide in complete Freund's adjuvant (CFA) and pertussis toxin. The mice were examined daily regarding the course of the artificially triggered disease. Through the administration of L-BSO or DMF, the GSH levels in lymphoid organs and in the brain of immunized mice could be lowered (not shown). […] 6 days after immunization, the draining lymph nodes of the mice were analyzed. For this, the CD4^+ T cells were isolated and the cytokine production of PLP-specific T cells measured using ELISPOT after in vitro stimulation.

For assay [6], the system named is PLP-specific CD4+ T cells. Nature of the assay: ELISPOT cytokine analysis of PLP-specific CD4+ T cells from draining lymph nodes of fed mice. The format is in vivo, SJL mice. The conditions noted are these: 6 days after immunization, ELISPOT IL-4 / IFN-γ. On the procedure: as §3, with “sclerosis). Next, 10^7 sham (control) or L-BSO treated T cells were injected intraperitoneally into naive SJL mice and the EAE developing as a result was observed.” for “sclerosis).”
In order further to study whether GSH deprivation can also influence the differentiation and pathogenicity of autoreactive T cells in vivo, mice were fed with DMF or L-BSO in the drinking water, and the control group only with drinking water. […] 6 days after immunization, the draining lymph nodes of the mice were analyzed. For this, the CD4^+ T cells were isolated and the cytokine production of PLP-specific T cells measured using ELISPOT after in vitro stimulation.

The test system of assay [7] is human DC. Nature of the assay: GSH determination in human DC in vitro. The format is cell-based. On the procedure: Cellular GSH and GSSG were determined in micro-titer plate assays using colorimetric methods. The cellular GHS content is determined as a percentage of the GSH levels in freshly prepared controls or as pmol 10^−6 cells. GSSG was not detectable.
DC from human bone marrow (BMDC) (CD14^+) were isolated using MACS (Miltenyi Biotech) and incubated for seven days with IL-4 (500 U/ml, R & D Systems) and GM-CSF (Granulocyte-Monocyte Colony Stimulating Factor) (1000 U/ml (Immunonex)). GSX determination as under 1.3.

“Also recorded” adds a separate entry of the source. Where a name gives a salt, the structure may show the parent alone.

Here are results for two molecules from patent publication US8618178B2, “Method and substances for treating T-cell mediated autoimmune diseases” (Eberhard-Karls-Universitaet Tuebingen Universitaetsklinikum, priority 2006, dated 2013).

With `COC(=O)/C=C/C(=O)OC` [DMF, dimethyl fumarate], in assay [1] (LPS-induced), the “lowering of LPS-induced IL-23 production in DC cultivated from bone marrow” value is recorded as “up to 10,000 fold”. Besides, in assay [1] (after stimulation with LPS, compared to controls (DMSO)), the “IL-23 production by DC” value is recorded as “markedly less”. Moreover, the “IL-10 production in DC” value in assay [2] is given as “rise in IL-10 production”. Also, in assay [3], the “IFN-γ production of TH cells induced by treated DC” value is recorded as “little IFN-γ” and the “IL-4 production of TH cells induced by treated DC” value is listed as “much IL-4”. Moreover, in assay [4], the “differentiation of PLP-specific T cells to Th1 and Th-17” value is “inhibits the differentiation of Th1 and Th-17”; the “differentiation of PLP-specific T cells towards Th2” value is listed as “promotes the differentiation towards Th2”. Moreover, in assay [5], the “course/severity of actively induced EAE” value is on record as “markedly milder EAE; also recorded: protects actively immunized mice against the onset of severe encephalomyelitis” and the “survival of mice with actively induced EAE” value is “all mice survived”. Moreover, the “cytokine pattern of PLP-specific CD4+ T cells” value in assay [6] is “TH2-like pattern”. Also, the “GSH in human DC” value in assay [7] is recorded as “depletes GSH”.
Turning to `CCCCS(=N)(=O)CCC(N)C(=O)O` [L-BSO, L-buthionine sulfoximine], in assay [5], the “course/severity of actively induced EAE” value is “markedly milder EAE; also recorded: markedly improved; also recorded: protects actively immunized mice against the onset of severe encephalomyelitis” and the “survival of mice with actively induced EAE” value was “all mice survived”. Further, in assay [6], the “cytokine pattern of PLP-specific CD4+ T cells” value is listed as “TH2-like pattern”.
